What is called Papp A→B is how fast a substance crosses the layer from the apical side. Low readings indicate slow passage, high ones fast passage.

Experimental findings from patent US20250195536A1, “BICYCLOOCTANE KRAS INHIBITORS” (Incyte Corporation, priority 2023, published 2025) are described below.

For one data set, the target named is KRAS G12D (Homo sapiens, UniProt P01116, G12D). Put plainly: GDP-GTP exchange assay (KRAS G12D).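 Also: one dagger IC50 up to 100 nM and two daggers above 100 nM up to 1 μM.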 The following applies: bodipy-GDP/GppNHp exchange with SOS1; 4 h pre-incubation, 2 h reaction. In kind it is biochemical. An outline of the steps: (§1)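 Bodipy-GDP-loaded KRAS (2.5 nM final) was pre-incubated 4 h at r.t. with inhibitor in Hepes pH 7.5 buffer with MgCl2, then exchange started with GppNHp (500 μM) and SOS1 (150 nM) final. Fluorescence (ex 485/em 520 nm) read after 2 h for G12D, 3 h for G12V; IC50 from four-parameter logistic fit.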

The next data set has as its target KRAS G12V (Homo sapiens, UniProt P01116, G12V). Put plainly: GDP-GTP exchange assay (KRAS G12V).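 Also: one dagger IC50 up to 100 nM and two daggers above 100 nM up to 1 μM.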 In kind it is biochemical. The following applies: bodipy-GDP/GppNHp exchange with SOS1; 3 h incubation after GppNHp-SOS1. An outline of the steps:
as §1

Data set [1] in a line: Caco2 assay (permeability, Papp A-B). In kind it is in vitro ADME. The following applies: human, Caco-2, absorptive direction (A-B), 50 μM test compound, 4% BSA in receiver. In a few lines:
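Caco-2 monolayers, 22-25 days on Transwells, TEER 300 Ω·cm^2, dosed apically with 50 μM compound in HBSS; basolateral HBSS with 4% BSA. 120 min at 37 °C, samples quantified by LCMS; Papp (A-B) from receiver-side cumulative flux slope, donor volume, surface area and initial donor amount.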
Background: Passage across Caco-2 layers is used to estimate intestinal permeability.

Chain of KRAS G12V (P01116 1-188 isoform P01116-2 G12V): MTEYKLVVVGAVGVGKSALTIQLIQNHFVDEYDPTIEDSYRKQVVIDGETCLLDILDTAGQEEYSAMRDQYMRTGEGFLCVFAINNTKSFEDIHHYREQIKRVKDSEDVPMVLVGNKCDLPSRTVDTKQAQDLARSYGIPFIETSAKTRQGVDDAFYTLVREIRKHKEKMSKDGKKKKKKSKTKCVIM
Chain of KRAS G12D (P01116 1-188 isoform P01116-2 G12D): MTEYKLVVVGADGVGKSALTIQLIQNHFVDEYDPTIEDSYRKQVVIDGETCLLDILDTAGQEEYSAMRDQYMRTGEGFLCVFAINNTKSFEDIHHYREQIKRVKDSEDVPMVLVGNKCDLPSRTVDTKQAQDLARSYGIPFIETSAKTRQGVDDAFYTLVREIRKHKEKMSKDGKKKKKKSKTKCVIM

For `Cc1nc2c(F)c(-c3cccc(Cl)c3Cl)c(CCC#N)cc2c2c1cc([C@H]1[C@H]3C[C@H](CN(c4cc(C)n(C)n4)C3)N1C(=O)C1CC1)n2[C@H]1[C@H]2CN[C@@H]1C2` (atropisomer, axis not shown; (Ra)) [Example 105, 3-((Ra)-1-((1R,4R,5S)-2-azabicyclo[2.1.1]hexan-5-yl)-2-((1S,5R,7R)-6-(cyclopropanecarbonyl)-3-(1,5-dimethyl-1H-pyrazol-3-yl)-3,6-diazabicyclo[3.2.1]octan-7-yl)-7-(2,3-dichlorophenyl)-6-fluoro-4-methyl-1H-pyrrolo[3,2-c]quinolin-8-yl)propanenitrile], the “G12D_exchange (KRAS_G12D exchange assay IC50)” value (“G12D_exchange” below) on KRAS G12D is given as “†”. In addition, the “G12V_exchange (KRAS_G12V exchange assay IC50)” value (shortened to “G12V_exchange”) at KRAS G12V was “†”. The Papp A→B at 120 min, 50 μM in data set [1] was no more than 0.5 ×10⁻⁶ cm/s.

On to `Cc1nc2c(F)c(-c3cccc(Cl)c3Cl)c(CCC#N)cc2c2c1cc([C@H]1[C@H]3C[C@H](CN(c4ncc(C5CC5)s4)C3)N1C(=O)C1CC1)n2[C@H]1[C@H]2CN[C@@H]1C2` (atropisomer, axis not shown; (Ra)) [Example 106, 3-((Ra)-1-((1R,4R,5S)-2-azabicyclo[2.1.1]hexan-5-yl)-2-((1S,5R,7R)-6-(cyclopropanecarbonyl)-3-(5-cyclopropylthiazol-2-yl)-3,6-diazabicyclo[3.2.1]octan-7-yl)-7-(2,3-dichlorophenyl)-6-fluoro-4-methyl-1H-pyrrolo[3,2-c]quinolin-8-yl)propanenitrile], for which the “G12D_exchange” value on KRAS G12D is listed as “†”. Moreover, the “G12V_exchange” value at KRAS G12V is reported as “†”. Further, the Papp A→B at 120 min, 50 μM in data set [1] is no more than 0.5 ×10⁻⁶ cm/s.

`Cc1nc2c(F)c(-c3cccc(Cl)c3Cl)c(CCC#N)cc2c2c1cc([C@H]1[C@H]3C[C@H](CN(C(=O)C4CC4)C3)N1C(=O)C1CC1)n2[C@H]1[C@H]2CN[C@@H]1C2` (atropisomer, axis not shown; (Ra)) [Example 107, 3-((Ra)-1-((1R,4R,5S)-2-Azabicyclo[2.1.1]hexan-5-yl)-2-((1 S,5R,7R)-3,6-di(cyclopropanecarbonyl)-3,6-diazabicyclo[3.2.1]octan-7-yl)-7-(2,3-dichlorophenyl)-6-fluoro-4-methyl-1H-pyrrolo[3,2-c]quinolin-8-yl)propanenitrile]: the “G12D_exchange” value at KRAS G12D is given as “†”. Further, at KRAS G12V, the “G12V_exchange” value is on record as “†”. In data set [1], this molecule displayed an apparent permeability from apical to basolateral (Papp A→B) at 120 min, 50 μM of no more than 0.5 ×10⁻⁶ cm/s.

For the molecule `COC(=O)N1C[C@@H]2C[C@H](C1)N(C(=O)C1CC1)[C@H]2c1cc2c(C)nc3c(F)c(-c4cccc(Cl)c4Cl)c(CCC#N)cc3c2n1[C@H]1[C@H]2CN[C@@H]1C2` (atropisomer, axis not shown; (Ra)) [Example 108, Methyl (1 S,5R,7R)-7-((Ra)-1-((1R,4R,5S)-2-azabicyclo[2.1.1]hexan-5-yl)-8-(2-cyanoethyl)-7-(2,3-dichlorophenyl)-6-fluoro-4-methyl-1H-pyrrolo[3,2-c]quinolin-2-yl)-6-(cyclopropanecarbonyl)-3,6-diazabicyclo[3.2.1]octane-3-carboxylate], the “G12D_exchange” value at KRAS G12D is “†”. The “G12V_exchange” value at KRAS G12V was “†”. Moreover, the Papp A→B at 120 min, 50 μM in data set [1] was no more than 0.5 ×10⁻⁶ cm/s.

For `Cc1noc(C)c1S(=O)(=O)N1C[C@@H]2C[C@H](C1)N(C(=O)C1CC1)[C@H]2c1cc2c(C)nc3c(F)c(-c4cccc(Cl)c4Cl)c(CCC#N)cc3c2n1[C@H]1[C@H]2CN[C@@H]1C2` (atropisomer, axis not shown; (Ra)) [Example 110, 3-((Ra)-1-((1R,4R,5S)-2-Azabicyclo[2.1.1]hexan-5-yl)-2-((1 S,5R,7R)-6-(cyclopropanecarbonyl)-3-((3,5-dimethylisoxazol-4-yl)sulfonyl)-3,6-diazabicyclo[3.2.1]octan-7-yl)-7-(2,3-dichlorophenyl)-6-fluoro-4-methyl-1H-pyrrolo[3,2-c]quinolin-8-yl)propanenitrile], on KRAS G12D, the “G12D_exchange” value is reported as “†”. The “G12V_exchange” value on KRAS G12V is “†”. This molecule also displayed a Papp A→B at 120 min, 50 μM in data set [1] of no more than 0.5 ×10⁻⁶ cm/s.

As for `Cc1nc2c(F)c(-c3cccc(Cl)c3Cl)c(CCC#N)cc2c2c1cc([C@H]1[C@H]3C[C@H](CN(S(=O)(=O)N4CCOCC4)C3)N1C(=O)C1CC1)n2[C@H]1[C@H]2CN[C@@H]1C2` (atropisomer, axis not shown; (Ra)) [Example 111, 3-((Ra)-1-((1R,4R,5S)-2-Azabicyclo[2.1.1]hexan-5-yl)-2-((1 S,5R,7R)-6-(cyclopropanecarbonyl)-3-(morpholinosulfonyl)-3,6-diazabicyclo[3.2.1]octan-7-yl)-7-(2,3-dichlorophenyl)-6-fluoro-4-methyl-1H-pyrrolo[3,2-c]quinolin-8-yl)propanenitrile], the “G12D_exchange” value at KRAS G12D is reported as “††”. Also, the “G12V_exchange” value at KRAS G12V is on record as “†”. In addition, in data set [1], the apical-to-basolateral permeability (Papp A→B) at 120 min, 50 μM is no more than 0.5 ×10⁻⁶ cm/s.

On to `Cc1nc2c(F)c(-c3cccc(Cl)c3Cl)c(CCC#N)cc2c2c1cc(C1C3CC(CN(C)C3=O)N1C(=O)C1CC1)n2C1C2CNC1C2` (atropisomer, axis not shown; (Ra)) [Example 112, 3-((Ra)-1-((1R,4R,5S)-2-Azabicyclo[2.1.1]hexan-5-yl)-2-((1R,5R,7R)-6-(cyclopropanecarbonyl)-3-methyl-2-oxo-3,6-diazabicyclo[3.2.1]octan-7-yl)-7-(2,3-dichlorophenyl)-6-fluoro-4-methyl-1H-pyrrolo[3,2-c]quinolin-8-yl)propanenitrile], for which the “G12D_exchange” value on KRAS G12D is listed as “††”. Further, the “G12V_exchange” value on KRAS G12V was “†”. For the same molecule, the apical-to-basolateral permeability (Papp A→B) at 120 min, 50 μM in data set [1] is no more than 0.5 ×10⁻⁶ cm/s.

Consider `Cc1nc2c(F)c(-c3cccc(Cl)c3Cl)c(CCC#N)cc2c2c1cc(C1C3CC(CN(C4CCCCC4)C3=O)N1C(=O)C1CC1)n2C1C2CNC1C2` (atropisomer, axis not shown; (Ra)) [Example 113, 3-((Ra)-1-((1R,4R,5S)-2-Azabicyclo[2.1.1]hexan-5-yl)-2-((1R,5R,7R)-3-cyclohexyl-6-(cyclopropanecarbonyl)-2-oxo-3,6-diazabicyclo[3.2.1]octan-7-yl)-7-(2,3-dichlorophenyl)-6-fluoro-4-methyl-1H-pyrrolo[3,2-c]quinolin-8-yl)propanenitrile], for which the “G12D_exchange” value on KRAS G12D is given as “†††”. The “G12V_exchange” value at KRAS G12V is on record as “†”. Further, the Papp A→B at 120 min, 50 μM in data set [1] is no more than 0.5 ×10⁻⁶ cm/s.

Take `Cc1nc2c(F)c(-c3cccc(Cl)c3Cl)c(CCC#N)cc2c2c1cc([C@H]1[C@@H]3COC[C@@H](C3)N1C(=O)C1CC1)n2[C@H]1[C@H]2CN[C@@H]1C2` (atropisomer, axis not shown; (Ra)) [Example 115, 3-((Ra)-1-((1R,4R,5S)-2-Azabicyclo[2.1.1]hexan-5-yl)-2-((1R,5R,7R)-6-(cyclopropanecarbonyl)-3-oxa-6-azabicyclo[3.2.1]octan-7-yl)-7-(2,3-dichlorophenyl)-6-fluoro-4-methyl-1H-pyrrolo[3,2-c]quinolin-8-yl)propanenitrile]: the “G12D_exchange” value at KRAS G12D is reported as “†”. Besides, at KRAS G12V, the “G12V_exchange” value is reported as “†”. In data set [1], this molecule yielded a Papp A→B at 120 min, 50 μM of no more than 0.5 ×10⁻⁶ cm/s.
